Measured values as given in patent US20030187048A1, “Method for inhibiting skin lesion formation using histamine as the active ingredient” (priority 1991, published 2003).
Where “and” joins values, the source holds several entries; their conditions need not be identical. Identical values can stand only once. Like-named read-outs stand apart in the source and are kept apart here.

Key:
[1] = tested on: aphthous ulcers (canker sores); conditions: 0.0067% IEP gel; aphthous stomatitis
Method: (§1) The composition of the present invention includes initial preparation of a gel base by adding 0.8% CARBOPOL 940, which is a vinyl polymer, to distilled water. This mixture was allowed to stand for several hours until the polymer was wetted and a gel was formed. This mixture then was blended by means of a ordinary high speed mixer, such as a Lightning Labmaster II until a homogenous mixture is formed. At this point, a neutralizing and emulsifying agent such as an amino alcohol was added, forming an emulsion. […] This composition then was applied topically to various types of lesions, as subsequently described. […] Propylparaben or methylparaben may be used as a preservative. For “unidose” dispensers containing only two to three drops, no preservatives are used, as it is known that preservatives in ophthalmic solutions frequently cause undesirable side effects. The term semi-synthetic water soluble polymer as used herein includes hydroxy methylcellulose or carboxy methylcellulose. Carbopol is widely available in different viscosities.

[2] = tested on: herpetic stomatitis lesions (fever blisters or cold sores)
Method: as §1

[3] = tested on: active herpes labialis lesions; conditions: 0.0275% gel
Source text: An additional gel concentration (0.0275%) was' used on two patients for active herpes labialis lesions.

[4] = tested on: cold sore (herpes labialis) lesions
[5] = 0.0067% IEP gel, herpes labialis

## NCCc1c[nH]cn1 [IEP, 1H-imidazole-4-ethanamine,phosphate]
[1]
  Burning, reduction after 1 app.: 20%
  Burning, reduction after 1 day: 40%
  Estimated number of applications needed to eliminate clinical symptoms: 9
  Pain, reduction after 1 app.: 73%
  Pain, reduction after 1 day: 80%
  Percentage decrease in healing time compared to untreated episode: 67%
  Percentage of patients who experienced lesion abortion: 67%
  Size, reduction after 1 app.: 23%
  Size, reduction after 1 day: 43%
  Swelling, reduction after 1 app.: 20%
  Swelling, reduction after 1 day: 50%
[2]; [5]
  Burning, reduction after 1 app.: 63%
  Burning, reduction after 1 day: 92%
  Estimated number of applications needed to eliminate clinical symptoms: 5
  Itching, reduction after 1 app.: %60
  Itching, reduction after 1 day: 97%
  Pain, reduction after 1 app.: 58%
  Pain, reduction after 1 day: 87%
  Percentage decrease in healing time compared to untreated episode: 49%
  Percentage of patients who experienced lesion abortion: 60%
  Size, reduction after 1 app.: 10%
  Size, reduction after 1 day: 32%
  Spreading, reduction after 1 app.: 40%
  Spreading, reduction after 1 day: 62%
  Swelling, reduction after 1 app.: %27
  Swelling, reduction after 1 day: 72%
[2]; 0.0067% gel applied at first sensation, both treatment groups (herpes labialis and aphthous ulcers)
  Fraction of total patients who experienced the abortion of lesions: Approximately two-thirds
[3]; p<0.05
  Difference in lesion decay rates vs placebo gel: statistically significant
[3]; per patient
  Standardized Decay Rate/24 hrs: 56.55 and 36.36
[4]; 0.00083% gel, 4 patients
  Mean percentage decay rate of lesions, Conc. Mean: 23.1%
[4]; 0.00083% gel, 48 Hours
  Average % reduction in lesions from original size: 14.0%
[4]; 0.00083% gel, 72 Hours
  Average % reduction in lesions from original size: 27.6%
[4]; 0.00083% gel, 96 Hours
  Average % reduction in lesions from original size: 44.3%
[4]; 0.00083% gel, Day 1
  Burning, average percent reduction of original symptom: 20.9%
  Itching, average percent reduction of original symptom: 41.7%
  Pain, average percent reduction of original symptom: 34.2%
  Spreading, average percent reduction of original symptom: 0%
  Swelling, average percent reduction of original symptom: 10.4%
[4]; 0.00083% gel, Day 2
  Burning, average percent reduction of original symptom: 66.7%
  Itching, average percent reduction of original symptom: 47.8%
  Pain, average percent reduction of original symptom: 51.7%
  Spreading, average percent reduction of original symptom: 0%
  Swelling, average percent reduction of original symptom: 37.5%
[4]; 0.00083% gel, Day 3
  Burning, average percent reduction of original symptom: 58.3%
  Itching, average percent reduction of original symptom: 16.7%
  Pain, average percent reduction of original symptom: 51.7%
  Spreading, average percent reduction of original symptom: 11.1%
[4]; 0.00083% gel, Day 4
  Burning, average percent reduction of original symptom: 75.0%
  Itching, average percent reduction of original symptom: 11.1%
  Pain, average percent reduction of original symptom: 65.0%
  Spreading, average percent reduction of original symptom: 22.2%
  Swelling, average percent reduction of original symptom: 75.0%
[4]; 0.00083% gel, Day 5
  Burning, average percent reduction of original symptom: 77.8%
  Itching, average percent reduction of original symptom: 41.7%
  Pain, average percent reduction of original symptom: 64.4%
  Spreading, average percent reduction of original symptom: 50.0%
  Swelling, average percent reduction of original symptom: 55.6%
[4]; 0.00083% gel, Day 6
  Burning, average percent reduction of original symptom: 66.7%
  Itching, average percent reduction of original symptom: 75.0%
  Pain, average percent reduction of original symptom: 66.7%
  Spreading, average percent reduction of original symptom: 66.7%
  Swelling, average percent reduction of original symptom: 0%
[4]; 0.0033% gel, 5 patients
  Mean percentage decay rate of lesions, Conc. Mean: 24.1%
[4]; 0.0033% gel, 24 Hours
  Average % reduction in lesions from original size: 11.8%
[4]; 0.0033% gel, 48 Hours
  Average % reduction in lesions from original size: 44.6%
[4]; 0.0033% gel, 72 Hours
  Average % reduction in lesions from original size: 57.8%
[4]; 0.0033% gel, 96 Hours
  Average % reduction in lesions from original size: 61.6%
[4]; 0.0033% gel, Day 1
  Burning, average percent reduction of original symptom: 21.7%
  Itching, average percent reduction of original symptom: 23.4%
  Spreading, average percent reduction of original symptom: 50.0%
[4]; 0.0033% gel, Day 2
  Burning, average percent reduction of original symptom: 37.5%
  Itching, average percent reduction of original symptom: 55.0%
  Spreading, average percent reduction of original symptom: 50.0%
  Swelling, average percent reduction of original symptom: 45.4%
[4]; 0.0033% gel, Day 3
  Burning, average percent reduction of original symptom: 62.5%
  Itching, average percent reduction of original symptom: 58.5%
  Pain, average percent reduction of original symptom: 33.3%
  Spreading, average percent reduction of original symptom: 16.7%
  Swelling, average percent reduction of original symptom: 55.8%
[4]; 0.0033% gel, Day 4
  Burning, average percent reduction of original symptom: 68.8%
  Itching, average percent reduction of original symptom: 75.0%
  Pain, average percent reduction of original symptom: 66.8%
  Spreading, average percent reduction of original symptom: 100%
  Swelling, average percent reduction of original symptom: 55.9%
[4]; 0.0033% gel, Day 5
  Burning, average percent reduction of original symptom: 100%
  Itching, average percent reduction of original symptom: 82.5%
  Pain, average percent reduction of original symptom: 66.7%
  Spreading, average percent reduction of original symptom: 100%
  Swelling, average percent reduction of original symptom: 65.0%
[4]; 0.0033% gel, Day 6
  Burning, average percent reduction of original symptom: 87.5%
  Itching, average percent reduction of original symptom: 100%
  Pain, average percent reduction of original symptom: 83.4%
  Swelling, average percent reduction of original symptom: 66.7%
[4]; 0.0067% gel, 4 patients
  Mean percentage decay rate of lesions, Conc. Mean: 54.4%
[4]; 0.0067% gel, 24 Hours
  Average % reduction in lesions from original size: 37.5%
[4]; 0.0067% gel, 48 Hours
  Average % reduction in lesions from original size: 67.0%
[4]; 0.0067% gel, 72 Hours
  Average % reduction in lesions from original size: 86.2%
[4]; 0.0067% gel, 96 Hours
  Average % reduction in lesions from original size: 98.9%
[4]; 0.0067% gel, Day 1
  Burning, average percent reduction of original symptom: 50.0%
  Itching, average percent reduction of original symptom: 50.0%
  Pain, average percent reduction of original symptom: 66.7%
  Spreading, average percent reduction of original symptom: 66.7%
  Swelling, average percent reduction of original symptom: 50.0%
[4]; 0.0067% gel, Day 2
  Burning, average percent reduction of original symptom: 100%
  Itching, average percent reduction of original symptom: 100%
  Pain, average percent reduction of original symptom: 83.4%
  Spreading, average percent reduction of original symptom: 100%
  Swelling, average percent reduction of original symptom: 83.3%
[4]; 0.0067% gel, Day 3
  Burning, average percent reduction of original symptom: 100%
  Itching, average percent reduction of original symptom: 100%
  Pain, average percent reduction of original symptom: 55.6%
  Spreading, average percent reduction of original symptom: 100%
  Swelling, average percent reduction of original symptom: 54.2%
[4]; 0.0067% gel, Day 4
  Burning, average percent reduction of original symptom: 100%
  Itching, average percent reduction of original symptom: 75.0%
  Pain, average percent reduction of original symptom: 55.6%
  Spreading, average percent reduction of original symptom: 100%
  Swelling, average percent reduction of original symptom: 61.7%
[4]; 0.0067% gel, Day 5
  Burning, average percent reduction of original symptom: 100%
  Itching, average percent reduction of original symptom: 100%
  Pain, average percent reduction of original symptom: 100%
  Spreading, average percent reduction of original symptom: 100%
  Swelling, average percent reduction of original symptom: 66.7%
[4]; 0.0067% gel, Day 6
  Spreading, average percent reduction of original symptom: 100%
  Swelling, average percent reduction of original symptom: 100%
[4]; 0.0067% treatment vs placebo, p<0.05
  Reducing lesion size over time vs placebo (analysis of variance): significantly more effective
[4]; in vivo
  Untoward reactions: no untoward reactions
